Our source for the IC50 values is ChEMBL document CHEMBL5726154, “Substituted heterocyclic derivative, preparation method and use thereof” (2019).

In this test the target is T1, N-acylethanolamine-hydrolyzing acid amidase (Homo sapiens, UniProt Q02083).
T1 sequence (Q02083 whole entry): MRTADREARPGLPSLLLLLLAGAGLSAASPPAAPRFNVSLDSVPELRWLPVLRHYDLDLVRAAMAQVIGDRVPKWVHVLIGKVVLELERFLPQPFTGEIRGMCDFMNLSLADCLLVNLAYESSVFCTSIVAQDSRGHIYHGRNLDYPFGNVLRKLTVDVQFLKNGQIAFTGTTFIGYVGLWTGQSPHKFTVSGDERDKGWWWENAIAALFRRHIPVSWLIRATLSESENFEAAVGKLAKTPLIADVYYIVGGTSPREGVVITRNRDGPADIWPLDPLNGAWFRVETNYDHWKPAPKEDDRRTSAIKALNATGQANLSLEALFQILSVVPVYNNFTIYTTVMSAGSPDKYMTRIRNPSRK
Kind of test: Determining Endocannabinoid Hydrolase Activity: In the Experimental example, endocannabinoid hydrolases used were Fatty Acid Amide Hydrolase (FAAH) and N-acylethanolamide hydrolyzing acid amidase (NAAA), which were prepared by the method described in the document (PMCID: PMC3423427, PMC3723234, PMC2692831, PMC3382457). The preparation method was as followed: a plasmid (pCDNA3.1/NAAA or pCDNA3.1/FAAH) carrying a whole NAAA/FAAH gene was constructed, wherein the plasmid carried Cytomegalovirus (CMV) promoter and Neomycin selectable gene; the plasmid was transformed into HEK-293 cell via lipid medium, stable cell lines expressing NAAA/FAAH at a high level were obtained by G418 screening and Western-blot method. HEK-293 recombinant cells were cultured and collected, washed with PBS for 2-3 times, and ultrasonically treated in 20 mM Tris-HCl containing 0.32 M sucrose, then repeatedly frozen and thawed twice, and then centrifuged at 4° C., 800 g for 15 min. The supernatant (i.e., the desired protein) was collected, the protein concentration was determined by BCA method, and the protein was diluted to a concentration of 1 mg/mL, and sub-packaged and stored in a refrigerator at −80° C. for further use.In the Experimental example, PBS solution used was prepared as followed: 8 g NaCl, 0.2 g KCl, 1.44 g Na2HPO4, and 0.24 g KH2PO4 were dissolved in 1 L ultrapure water, and the resultant solution was subjected to moist heat sterilization and stored at 4° C.30 μL (1 mg/mL) endocannabinoid hydrolase was added to a sample vial, and 2 μL DMSO (Blank control group) or a different concentration of a test compound (Compounds 1-46 prepared in the Examples according to the invention) was further added. The reaction was carried out at 37° C. for 10 min. 170 μL buffer (the buffer consisted of 50 mM disodium Hydrogen Phosphate, 0.1% Triton X-100, 3 mM DTT, 150 μL) containing enzymatic hydrolysis substrate (the substrate was a heptadecenoyl ethanolamine containing a double bond and 17 carbon atoms, abbreviated as 17:1 FAE) was further added, wherein the concentration of 17:1 FAE was 5 μM. The reaction was carried out at 37° C. for 30 min, and 200 μL methanol solution containing internal standard (the internal standard was margaric acid, at a concentration of 1 nmol) was then added to stop the reaction. LC-MS was used to determine the yield of the hydrolysate 17:1 FA (i.e., a heptadecenoic acid containing a double bond) of 17:1 FAE, then a graph was plotted with Graphpad Prism 5. Thereby, the IC50 of the test compound on endocannabinoid hydrolase was determined.By the method above, the inhibitory effects of the Compounds 1-46 prepared in the invention on NAAA and FAAH were determined.

What is called IC50 is the concentration that inhibits the measured activity by half.

On to `O=C1OCCN1C(=O)c1ccc(Oc2cccc(Cl)c2)cc1`, for which the IC50 was 370 nM.

Turning to `O=C1OCCN1C(=O)c1cccc(OCc2ccccc2)c1`, the IC50 amounted to 78600 nM.

Regarding `C[C@@H]1COC(=O)N1C(=O)CCCCCc1ccccc1`, the IC50 stood at 910 nM.

As for `O=C(CCCCCc1cccc(F)c1)N1CCOC1=O`, the IC50 worked out at 250 nM.

With `O=C1OCCN1C(=O)c1ccc(OCc2ccccc2)cc1`, the IC50 worked out at 3400 nM.

As for `CCCCCCCCCCCCCCCC(=O)N1CCNC1=O`, the IC50 was 5400 nM.

For `O=C(CCCCCc1ccccc1)N1CCOC1=O`, the IC50 amounted to 210 nM.

Turning to `O=C(CCCCCCc1ccc(Cl)cc1Cl)N1CCOC1=O`, the IC50 came out at 2200 nM.

In the case of `O=C(CCCCc1ccccc1)N1CCOC1=O`, the IC50 was determined as 11200 nM.

With `O=C(CCCCCC1CCCNC1)N1CCOC1=O` (stereo not given), the IC50 worked out at 130 nM.

As for `O=C(CCCCCc1c[nH]c2ccccc12)N1CCOC1=O`, the IC50 is 23500 nM.

`O=C(CCCCc1ccc(F)cc1)N1CCOC1=O`: the IC50 was determined as 850 nM.

As to `O=C(CCCCCC1CCCCC1)N1CCOC1=O`, the IC50 amounted to 180 nM.

Consider `O=C(CCCCCc1ccc(Cl)cc1)N1CCOC1=O`, for which the concentration for half-maximal inhibition (IC50) worked out at 5100 nM.

As for `O=C1OCCN1C(=O)c1cccc(-c2ccccc2)c1`, the IC50 is 9500 nM.

As for `O=C(CCCCc1cccc(Cl)c1)N1CCOC1=O`, the 50% inhibitory concentration (IC50) worked out at 370 nM.

In the case of `O=C(CCCCCCCc1ccccc1)N1CCOC1=O`, the IC50 turned out to be 21000 nM.

As for `CC(=O)C[C@@H]1COC(=O)N1C(=O)CCCCCc1cccc(C)c1`, the IC50 is 380 nM.

With `O=C(CCCCCc1ccoc1)N1CCOC1=O`, the IC50 amounted to 360 nM.

On to `O=C(CCCCCc1ccsc1)N1CCOC1=O`, for which the 50% inhibitory concentration (IC50) came out at 340 nM.

As to `O=C(CCCCCCc1ccccc1)N1CCOC1=O`, the concentration for half-maximal inhibition (IC50) amounted to 9400 nM.

Regarding `O=C(CCCCCc1ccc2ccccc2c1)N1CCOC1=O`, the IC50 is 920 nM.

As for `O=C(CCCCCc1ccc2cc(F)ccc2c1)N1CCOC1=O`, the IC50 was 5700 nM.

Consider `CCCCCCCCCCCCCCCC(=O)N1CCOC1=O`, for which the half-inhibitory concentration (IC50) was found to be 46800 nM.

Take `CC(=O)C[C@@H]1COC(=O)N1C(=O)CCCCCc1ccc(C)cc1`: the IC50 stood at 450 nM.
